Assay results from patent US7411003B1, “Inhibition of Hepatitis B virus by cyclohexenone compounds from Antrodia camphorata” (Golden Biotechnology Corporation, priority 2007, dated 2008).

Legend:
HbeAg = assay: Synthesis/secretion of HbeAg in hepatoma cell line, semi-quantitative ELISA; assay type: cell-based, hepatitis B virus; settings: HepG2 2.2.1 cells, 22 hours
Description: (§1) The effects of cyclohexenone compounds of Antrodia camphorata purified from Example 1 on synthesis of HbsAg and HbeAg were tested in this example. The compound 4-hydroxy-2,3-dimethoxy-6-methyl-5(3,7,11-trimethyl-dodeca-2,6,10-trienyl)-cyclohex-2-enone from example 1 was added into the culture media of hepatoma cell line HepG2 2.2.1 to determine the synthesis of HbsAg and HbeAg with the semi-quantitative enzyme-linked immunoabsorbent assay (ELISA). These two makers were used to assess the effectiveness of cyclohexenone in HBV inhibition. […]
(§2) The HepG2 2.2.1 cells were cultivated in minimum essential medium (MEM, Gibco Co., USA) containing 12 essential amino acids, glutamine, 8 vitamins, and supplemented with 10% fetal bovine serum and 200 μg/ml of antibiotic G418 for 24 hours. […] The assay was based on formation of sandwich complexes of antibody-antigen-antibody/enzyme and stained with O-phenylenediamine (OPD) color development solution and the results were expressed as absorbance units at 450 nm. Specimens with absorbance values above the cut off value are taken as positive for HbsAg and HBeAg. […]

HbsAg = assay: Synthesis/secretion of HbsAg in hepatoma cell line, semi-quantitative ELISA; assay type: cell-based, hepatitis B virus; settings: HepG2 2.2.1 cells, 22 hours
Description: as §1, §2

[1] = system: hepatoma cell line HepG2 2.2.15; assay: In vitro cytotoxic test on hepatoma cell line, MTT assay, survival rates; assay type: cell-based, human; settings: HepG2 2.2.1 cells, 10 μg/ml, 22 hours, compared with blank group
Description: Hepatoma cell inhibiting effects of cyclohexenone compounds of Antrodia camphorata from example 1 were assessed according to the anticancer-drug screening model of National Cancer Institute (NCI). The compound 4-hydroxy-2,3-dimethoxy-6-methyl-5(3,7,11-trimethyl-dodeca-2,6,10-trienyl)-cyclohex-2-enone from example 1 was added into the culture media of hepatoma cell line HepG2 2.2.15 to test the survival rates. Survival of cells was analyzed using MTT assay. HepG2 2.2.15 cell line was derived from human hepatoma, which can secrete infectious HBV.
MTT assay is commonly used to analyze cell proliferation, survival rate of viable cells and cytotoxicity. MTT (3[4,5-dimethylthiazol-2-yl]-2,5-diphenyltetrazolium bromide) is a yellow dye which can be converted to water-insoluble purple formazan on the reductive cleavage of its tetrazolium ring by the succinate tetrazolium reductase in mitrochondria of cells. The amount of formazan produced is used to detect the number of viable cells and calculate the survival rates.
The HepG2 2.2.1 cells were cultivated in minimum essential medium (MEM, Gibco Co., USA) containing 12 essential amino acids, glutamine, 8 vitamins, and supplemented with 10% fetal bovine serum and 200 μg/ml of antibiotic G418 for 24 hours. […] The absorbances were measured at 570 nm with an ELISA Reader and compared with that of the blank group to calculate the survival rates.

## COC1=C(OC)C(O)C(C/C=C(\C)CC/C=C(\C)CCC=C(C)C)C(C)C1=O (centres unmarked) [cyclohexenone from Antrodia camphorata, 4-hydroxy-2,3-dimethoxy-6-methyl-5(3,7,11-trimethyl-dodeca-2,6,10-trienyl)-cyclohex-2-enone]
HbeAg; 0.1 μg/ml
  Synthesis of HbeAg: below 84%
HbeAg; 1 μg/ml
  Synthesis of HbeAg (decrease could reach to as low as): 57%
HbsAg; 0.1 μg/ml
  Synthesis of HbsAg: below 60%
HbsAg; 10 μg/ml
  Synthesis of HbsAg (decrease could reach to as low as): 28%
[1]
  cell survival rates: lower than 81%
